From PubChem BioAssay (NCI)
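Each compound was tested at five concentrations against cells in 96-well plates for 48 hours. TGI is the concentration that stops growth completely.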

How the values were obtained:
Assay in all cases: NCI tumour cell line growth inhibition, 48 h
[1] = tested on: HCC-2998 colon
[2] = tested on: HL-60(TB) leukemia
[3] = tested on: 786-0 renal
[4] = tested on: SN12C renal
[5] = tested on: SNB-19 CNS
[6] = tested on: DU-145 prostate
[7] = tested on: MDA-MB-435
[8] = tested on: A498 renal
[9] = tested on: SR leukemia
[10] = tested on: RXF 393 renal
[11] = tested on: HCT-15 colon
[12] = tested on: UACC-62 melanoma
[13] = tested on: HCT-116 colon
[14] = tested on: COLO 205 colon
[15] = tested on: ACHN renal
[16] = tested on: MALME-3M melanoma
[17] = tested on: IGROV1 ovarian
[18] = tested on: MCF7 breast
[19] = tested on: SW-620 colon
[20] = tested on: NCI-H226 lung
[21] = tested on: LOX IMVI melanoma
[22] = tested on: HOP-62 NSCLC
[23] = tested on: SF-295 CNS
[24] = tested on: SF-268 CNS
[25] = tested on: OVCAR-4 ovarian
[26] = tested on: K-562 leukemia
[27] = tested on: U251 CNS
[28] = tested on: KM12 colon
[29] = tested on: A549 NSCLC
[30] = tested on: CAKI-1 renal
[31] = tested on: NCI-H522 lung
[32] = tested on: HOP-92 NSCLC
[33] = tested on: SK-MEL-28 melanoma
[34] = tested on: UO-31 renal
[35] = tested on: EKVX NSCLC
[36] = tested on: SF-539 CNS
[37] = tested on: SK-MEL-2 melanoma
[38] = tested on: OVCAR-3 ovarian
[39] = tested on: M14 melanoma
[40] = tested on: T-47D breast
[41] = tested on: RPMI-8226 leukemia
[42] = tested on: MDA-MB-231 breast
[43] = tested on: NCI-H23 lung
[44] = tested on: MDA-N
[45] = tested on: MOLT-4 leukemia
[46] = tested on: OVCAR-5 ovarian
[47] = tested on: SK-OV-3 ovarian
[48] = tested on: SNB-75 CNS
[49] = tested on: PC-3 prostate
[50] = tested on: UACC-257 melanoma
[51] = tested on: TK-10 renal
[52] = tested on: NCI-H460 lung
[53] = tested on: OVCAR-8 ovarian
[54] = tested on: HT29 colon
[55] = tested on: SK-MEL-5 melanoma
[56] = tested on: BT-549 breast
[57] = tested on: NCI/ADR-RES ovarian
[58] = tested on: HS 578T breast
[59] = tested on: CCRF-CEM leukemia

Measured: TGI

O=C(/C=C/c1ccc(OCc2ccccc2)c(OCc2ccccc2)c1)OCc1ccccc1
not listed: [58] | [59]
> 100 µM: all other assays above

CC1=Nc2c(N)nc(N)nc2N(C)C1
not listed: [1] | [3] | [8] | [9] | [13] | [21] | [25] | [29] | [31] | [32] | [54] | [57]
> 100 µM: all other assays above
